ChEMBL document CHEMBL1201862, “PubChem BioAssay data set” (2004)
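Interpolation was linear, between the two tested concentrations surrounding the appropriate level; five concentrations were tested over 48 hours in 96-well plates. Here, GI50 denotes the concentration required for 50% inhibition of growth.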 The source made the active and inactive calls. No stated cut-off is given here; in the data, active = GI50 up to about 1.1 µM and inactive = higher.

How the values were obtained:
Assay in all cases: growth of human tumour cells (NCI), 48 h
CAKI-1 = tested on: CAKI-1
SNB-19 = tested on: SNB-19
SK-MEL-28 = tested on: SK-MEL-28
COLO 205 = tested on: COLO 205
OVCAR-8 = tested on: OVCAR-8
SK-OV-3 = tested on: SK-OV-3
MDA-MB-435 = tested on: MDA-MB-435
SK-MEL-2 = tested on: SK-MEL-2
PC-3 = tested on: PC-3
SNB-75 = tested on: SNB-75
MDA-N = tested on: MDA-N
SF-268 = tested on: SF-268
BT-549 = tested on: BT-549
HCT-116 = tested on: HCT-116
NCI-H23 = tested on: NCI-H23
SF-539 = tested on: SF-539
IGROV-1 = tested on: IGROV-1
U-251 = tested on: U-251
NCI-H522 = tested on: NCI-H522
HOP-92 = tested on: HOP-92
OVCAR-3 = tested on: OVCAR-3
MOLT-4 = tested on: MOLT-4
HOP-62 = tested on: HOP-62
SF-295 = tested on: SF-295
ACHN = tested on: ACHN
SW-620 = tested on: SW-620
OVCAR-4 = tested on: OVCAR-4
RPMI-8226 = tested on: RPMI-8226
CCRF-CEM = tested on: CCRF-CEM
M14 = tested on: M14
HCT-15 = tested on: HCT-15
A549 = tested on: A549
T47D = tested on: T47D
HT-29 = tested on: HT-29
786-0 = tested on: 786-0
KM12 = tested on: KM12
MDA-MB-231 = tested on: MDA-MB-231
Hs-578T = tested on: Hs-578T
TK-10 = tested on: TK-10
DU-145 = tested on: DU-145
NCI/ADR-RES = tested on: NCI/ADR-RES
SK-MEL-5 = tested on: SK-MEL-5
UACC-62 = tested on: UACC-62
SR = tested on: SR
SN12C = tested on: SN12C
HCC 2998 = tested on: HCC 2998
RXF 393 = tested on: RXF 393
NCI-H460 = tested on: NCI-H460
K562 = tested on: K562
OVCAR-5 = tested on: OVCAR-5
UO-31 = tested on: UO-31
UACC-257 = tested on: UACC-257
Malme-3M = tested on: Malme-3M
NCI-H226 = tested on: NCI-H226

Measured: GI50

COc1ccccc1NC(=S)NNC(=O)c1cc(-c2ccccc2)nc2ccccc12
4.11 µM: HCT-15
inactive: CAKI-1 10.7 µM | SNB-19 24.5 µM | SK-MEL-28 10.4 µM | COLO 205 11.8 µM | OVCAR-8 18 µM | SK-OV-3 16.9 µM | MDA-MB-435 3.18 µM | SK-MEL-2 10.4 µM | PC-3 10.3 µM | SNB-75 18.7 µM | MDA-N 3.35 µM | SF-268 17.5 µM | BT-549 8.26 µM | HCT-116 6.22 µM | NCI-H23 13.9 µM | SF-539 11.5 µM | IGROV-1 13.9 µM | U-251 9.59 µM | NCI-H522 12.9 µM | HOP-92 12.8 µM | OVCAR-3 4.45 µM | MOLT-4 4.3 µM | HOP-62 11.7 µM | SF-295 4.38 µM | ACHN 17.7 µM | SW-620 7.76 µM | OVCAR-4 14.7 µM | RPMI-8226 6.97 µM | CCRF-CEM 2.08 µM | M14 11.9 µM | A549 8.55 µM | T47D 15.9 µM | HT-29 21.9 µM | 786-0 13.2 µM | KM12 7.01 µM | MDA-MB-231 10 µM | Hs-578T 16.6 µM | TK-10 26.5 µM | DU-145 12.4 µM | NCI/ADR-RES 12.8 µM | SK-MEL-5 5.81 µM | UACC-62 5.86 µM | SR 1.74 µM | SN12C 14.7 µM | HCC 2998 13.6 µM | RXF 393 3.27 µM | NCI-H460 13.2 µM | K562 6.97 µM | OVCAR-5 16.4 µM | UO-31 11 µM | UACC-257 18.2 µM | Malme-3M 4.69 µM | NCI-H226 17.3 µM
